Counter-ions that a name gives are not always drawn.
These compounds were tested against T1, RORc (Homo sapiens, UniProt P51449) (assay: In vitro RORc ligand binding assay (25-[3H]hydroxycholesterol displacement)). Conditions: IC50, IC50 values for RORc; unit inferred.
T1 sequence (P51449 269-508 limits assumed): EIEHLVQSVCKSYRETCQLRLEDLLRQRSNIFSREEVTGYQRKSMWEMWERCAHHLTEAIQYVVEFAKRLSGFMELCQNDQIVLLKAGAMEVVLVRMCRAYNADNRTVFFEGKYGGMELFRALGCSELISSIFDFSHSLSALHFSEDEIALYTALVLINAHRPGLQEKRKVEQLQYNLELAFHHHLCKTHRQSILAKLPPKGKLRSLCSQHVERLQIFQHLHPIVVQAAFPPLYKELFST
Experimental: This assay was used to determine a compound's potency in inhibiting activity of RORc by determining, Kiapp, IC50, or percent inhibition values.
On day of the assay, 100 uL of 0.05% CHAPS (in deionized H2O) was added to all wells of the GFB Unifilter plate and allowed soak for 1 h. A wash buffer of 50 mM HEPES (pH 7.4), 150 mM NaCl, and 5 mM MgCl2 was prepared to wash the filter plate. To prepare an assay buffer, BSA was added to the wash buffer to reach 0.01% and DTT was added to reach 1 mM.
The 20× compound stocks were diluted in DMSO with Assay Buffer 4-fold to reach 5× the final test concentration in 25% DMSO (10 uL compound+30 uL Assay Buffer). Solutions were mixed by aspiration several times with a pipette set on 50 uL volume. For the assay, 10 uL of 5× compound stock solutions in 25% DMSO were added to the assay plate in duplicate.
For two point screening, 10 mM stock compound solutions were diluted in DMSO to obtain 200 uM (20× the high test concentration) and then diluted 10-fold further to reach 20 uM (20× the low test concentration). The 20× stocks were diluted 4-fold with Assay Buffer (10 uL compound+30 uL Assay Buffer) to reach 5× the test concentrations (50 uM and 5 uM) and 10 uL were added to two assay plates for the duplicate wells. With each concentration tested on 2 plates, each set of 80 compounds used 4 assay plates (1 uM and 10 uM, with n=2).
For 25-hydroxycholesterol in 25% DMSO/75% Assay Buffer; 10 uL per well was used for NSB samples. Wells for Total Binding and No Receptor sample determination contained 10 uL of 25% DMSO/75% Assay Buffer per well.
Add 20 uL to all wells to reach 6 nM final in the assay.
Stock receptor solution was diluted in assay buffer to obtain 1.5 ug/mL in Assay Buffer. 20 uL was added to all wells. For No R samples, 20 uL Assay Buffer was substituted for receptor solution.
Assay plates were 96-well polypropylene V-bottom plates. 10 uL of 5× compound in 25% DMSO/75% Assay Buffer was added to Test wells. 10 uL of 25% DMSO/75% Assay Buffer was added to Total Binding or No Receptor wells. 10 uL of 5 uM 25-hydroxycholesterol in 25% DMSO/75% Assay Buffer was added to NSB wells. […] 20 uL of 1.5 ug/mL RORc receptor was added to wells (or 40 uL Assay Buffer to No R wells). Following addition to the wells, the plates were incubated 3 h at 25° C.
Using a Packard Filtermate Harvester, the filter plate were washed 4 times following transfer of the incubated samples. Plates were dry-filtered completely (2 h at 50° C. or overnight at room temperature). 50 uL Microscint 0 was added to all wells and read on Topcount protocol Inverted.
For NSB wells, 1 uM 25-hydroxycholesterol was also present.

Going from `C[C@H]1CC[C@@H](c2ccccc2)S(=O)(=O)N1Cc1ccc(C2(C(=O)NCCO)CCOCC2)cc1F` [Compound 47, 4-(3-fluoro-4-(((3S,6S)-3-methyl-1,1-dioxido-6-phenyl-1,2-thiazinan-2-yl)methyl)phenyl)-N-(2-hydroxyethyl)tetrahydro-2H-pyran-4-carboxamide] to `C[C@H]1CC[C@H](c2ccccc2)S(=O)(=O)N1Cc1ccc(C2(C(=O)NCCCO)CCOCC2)cc1F` [Compound 54, 4-[3-fluoro-4-[[(3S,6R)-3-methyl-1,1-dioxo-6-phenyl-thiazinan-2-yl]methyl]phenyl]-N-(3-hydroxypropyl)tetrahydropyran-4-carboxamide], the IC50 falls from 991 nM to 79.8 nM (12-fold).

First: C[C@H]1CC[C@H](c2ccccc2)S(=O)(=O)N1Cc1ccc(C2(C(N)=O)CC2)cc1F [Compound 196, 1-[3-fluoro-4-[[(3S,6R)-3-methyl-1,1-dioxo-6-phenyl-thiazinan-2-yl]methyl]phenyl]cyclopropanecarboxamide]
Second: C[C@H]1CC[C@H](c2ccccc2)S(=O)(=O)N1Cc1ccc(C2(N)CC2)cc1F [Compound 153, 1-[3-fluoro-4-[[(3S,6R)-3-methyl-1,1-dioxo-6-phenyl-thiazinan-2-yl]methyl]phenyl]cyclopropanamine; hydrochloride]
The IC50 of the first is 1.9-fold higher: 1080 nM for the first, 572 nM for the second. The second is the more potent here.

First: CNC(=O)COC1(c2cc(F)c(CN3[C@@H](C)CC[C@H](c4ccccc4)S3(=O)=O)cc2F)CCOCC1 [Compound 154, 2-[4-[2,5-difluoro-4-[[(3S,6R)-3-methyl-1,1-dioxo-6-phenyl-thiazinan-2-yl]methyl]phenyl]tetrahydropyran-4-yl]oxy-N-methyl-acetamide]
Second: C[C@H]1CC[C@H](c2ccccc2)S(=O)(=O)N1Cc1cc(F)c(C2(OCC(O)CO)CCOCC2)cc1F (stereo in doubt) [Compound 171, (2R)-3-[4-[2,5-difluoro-4-[[(3S,6R)-3-methyl-1,1-dioxo-6-phenyl-thiazinan-2-yl]methyl]phenyl]tetrahydropyran-4-yl]oxypropane-1,2-diol]
The IC50 of the first is 2-fold lower: 5.7 nM for the first, 11.6 nM for the second.

`C[C@H]1CC[C@H](c2ccccc2)S(=O)(=O)N1Cc1cc(F)c(C2(OCC(=O)O)COC2)cc1F` [Compound 135, 2-[3-[2,5-difluoro-4-[[(3S,6R)-3-methyl-1,1-dioxo-6-phenyl-thiazinan-2-yl]methyl]phenyl]oxetan-3-yl]oxyacetic acid] and `C[C@H]1CC[C@H](c2ccccc2)S(=O)(=O)N1Cc1cc(F)c(C2(COCC(N)=O)CC2)cc1F` [Compound 127, 2-[[1-[2,5-difluoro-4-[[(3S,6R)-3-methyl-1,1-dioxo-6-phenyl-thiazinan-2-yl]methyl]phenyl]cyclopropyl]methoxy]acetamide] are within 1.5-fold of each other in IC50: 27.2 nM for the first, 20 nM for the second.

`C[C@H](NC1(c2ccc(CN3[C@@H](C)CC[C@H](c4ccccc4)S3(=O)=O)c(F)c2)CCOCC1)C(N)=O` [Compound 185, (2S)-2-[[4-[3-fluoro-4-[[(3S,6R)-3-methyl-1,1-dioxo-6-phenyl-thiazinan-2-yl]methyl]phenyl]tetrahydropyran-4-yl]amino]propanamide] and `CC(=O)NC1(c2ccc(CN3[C@@H](C)CC[C@H](c4ccccc4)S3(=O)=O)c(F)c2)CCOCC1` [Compound 94, N-[4-[3-fluoro-4-[[(3S,6R)-3-methyl-1,1-dioxo-6-phenyl-thiazinan-2-yl]methyl]phenyl]tetrahydropyran-4-yl]acetamide] are within 1.5-fold of each other in IC50: 102 nM for the first, 93.2 nM for the second.

Compared with `C[C@H]1CC[C@H](c2ccccc2)S(=O)(=O)N1Cc1ccc(C2(CO)CC2)cc1F` [Compound 112, [1-[3-fluoro-4-[[(3S,6R)-3-methyl-1,1-dioxo-6-phenyl-thiazinan-2-yl]methyl]phenyl]cyclopropyl]methanol], `C[C@H]1CC[C@H](c2ccccc2)S(=O)(=O)N1Cc1ccc(C2(CN)CCOCC2)cc1F` [Compound 75, [4-[3-fluoro-4-[[(3S,6R)-3-methyl-1,1-dioxo-6-phenyl-thiazinan-2-yl]methyl]phenyl]tetrahydropyran-4-yl]methanamine] is 3.1-fold higher in IC50: 206 nM for the first, 639 nM for the second. The first is the more potent here.

First: C[C@H]1CC[C@H](c2ccccc2)S(=O)(=O)N1Cc1cc(F)c(C2(C(N)=O)CC(F)(F)C2)cc1F [Compound 194, 1-[2,5-difluoro-4-[[(3S,6R)-3-methyl-1,1-dioxo-6-phenyl-thiazinan-2-yl]methyl]phenyl]-3,3-difluoro-cyclobutanecarboxamide]
Second: C[C@H]1CC[C@H](c2ccccc2)S(=O)(=O)N1Cc1cc(F)c(C2(CCC(N)=O)CC2)cc1F [Compound 139, 3-[1-[2,5-difluoro-4-[[(3S,6R)-3-methyl-1,1-dioxo-6-phenyl-thiazinan-2-yl]methyl]phenyl]cyclopropyl]propanamide]
The IC50 of the first is 7.8-fold lower: 3.05 nM for the first, 23.7 nM for the second.

First: C[C@H]1CC[C@H](c2ccccc2)S(=O)(=O)N1Cc1ccc(C2(CCC#N)CCOCC2)cc1F [Compound 86, 3-[4-[3-fluoro-4-[[(3S,6R)-3-methyl-1,1-dioxo-6-phenyl-thiazinan-2-yl]methyl]phenyl]tetrahydropyran-4-yl]propanenitrile]
Second: CCOC(=O)COCC1(c2ccc(CN3[C@@H](C)CC[C@H](c4ccccc4)S3(=O)=O)c(F)c2)CCOCC1 [Compound 104, ethyl 2-[[4-[3-fluoro-4-[[(3S,6R)-3-methyl-1,1-dioxo-6-phenyl-thiazinan-2-yl]methyl]phenyl]tetrahydropyran-4-yl]methoxy]acetate]
The IC50 of the first is 3.1-fold lower: 7.8 nM for the first, 23.8 nM for the second.

Compared with `C[C@H]1CC[C@H](c2ccccc2)S(=O)(=O)N1Cc1ccc(C2(C(=O)NCCS(C)(=O)=O)CCOCC2)cc1F` [Compound 60, 4-[3-fluoro-4-[[(3S,6R)-3-methyl-1,1-dioxo-6-phenyl-thiazinan-2-yl]methyl]phenyl]-N-(2-methylsulfonylethyl)tetrahydropyran-4-carboxamide], `C[C@H]1CC[C@H](c2ccccc2)S(=O)(=O)N1Cc1ccc(C2(C(=O)NCC(=O)N(C)C)CCOCC2)cc1F` [Compound 56, N-[2-(dimethylamino)-2-oxo-ethyl]-4-[3-fluoro-4-[[(3S,6R)-3-methyl-1,1-dioxo-6-phenyl-thiazinan-2-yl]methyl]phenyl]tetrahydropyran-4-carboxamide] is 3.6-fold higher in IC50: 111 nM for the first, 403 nM for the second. The first is the more potent here.

Going from `C[C@H]1CC[C@H](c2ccccc2)S(=O)(=O)N1Cc1cc(F)c(C2(C(=O)NCC#N)CCOCC2)cc1F` [Compound 100, N-(cyanomethyl)-4[2,5-difluoro-4-[[(3S,6R)-3-methyl-1,1-dioxo-6-phenyl-thiazinan-2-yl]methyl]phenyl]tetrahydropyran-4-carboxamide] to `COC(=O)C1(c2ccc(CN3[C@@H](C)CC[C@@H](c4ccccc4)S3(=O)=O)c(F)c2)CCOCC1` [Compound 38, 4-[3-Fluoro-4-((3S,6S)-3-methyl-1,1-dioxo-6-phenyl-[1,2]thiazinan-2-ylmethyl)-phenyl]-tetrahydro-pyran-4-carboxylic acid methyl ester], the IC50 rises from 31 nM to 480 nM (15-fold).

First: C[C@H]1CC[C@H](c2ccccc2)S(=O)(=O)N1Cc1ccc(C2(OCC(N)=O)CCOCC2)cc1F [Compound 113, 2-[4-[3-fluoro-4-[[(3S,6R)-3-methyl-1,1-dioxo-6-phenyl-thiazinan-2-yl]methyl]phenyl]tetrahydropyran-4-yl]oxyacetamide]
Second: COC(=O)C1(c2ccc(CN3[C@@H](C)CC[C@H](c4ccccc4)S3(=O)=O)c(F)c2)CCOCC1 [Compound 39, 4-[3-Fluoro-4-((3S,6R)-3-methyl-1,1-dioxo-6-phenyl-[1,2]thiazinan-2-ylmethyl)-phenyl]-tetrahydro-pyran-4-carboxylic acid methyl ester]
The IC50 of the first is 38-fold lower: 5 nM for the first, 190 nM for the second.

First: C[C@H]1CC[C@H](c2ccccc2)S(=O)(=O)N1Cc1ccc(C2(NCCCO)CCOCC2)cc1F [Compound 187, 3-[[4-[3-fluoro-4-[[(3S,6R)-3-methyl-1,1-dioxo-6-phenyl-thiazinan-2-yl]methyl]phenyl]tetrahydropyran-4-yl]amino]propan-1-ol]
Second: C[C@H]1CC[C@H](c2ccccc2)S(=O)(=O)N1Cc1ccc(C2(NCC(=O)N(C)C)CCOCC2)cc1F [Compound 166, 2-[[4-[3-fluoro-4-[[(3S,6R)-3-methyl-1,1-dioxo-6-phenyl-thiazinan-2-yl]methyl]phenyl]tetrahydropyran-4-yl]amino]-N,N-dimethyl-acetamide]
The IC50 of the first is 2.7-fold higher: 74 nM for the first, 27.6 nM for the second. The second is the more potent here.

Compared with `CNC(=O)CCC1(c2cc(F)c(CN3[C@@H](C)CC[C@H](c4ccccc4)S3(=O)=O)cc2F)CC1` [Compound 146, 3-[1-[2,5-difluoro-4-[[(3S,6R)-3-methyl-1,1-dioxo-6-phenyl-thiazinan-2-yl]methyl]phenyl]cyclopropyl]-N-methyl-propanamide], `CC(=O)N1CCC(O)(c2ccc(CN3[C@@H](C)CC[C@H](c4ccccc4)S3(=O)=O)c(F)c2)CC1` [Example 9, 1-{4-[3-Fluoro-4-((3S,6R)-3-methyl-1,1-dioxo-6-phenyl-[1,2]thiazinan-2-ylmethyl)-phenyl]-4-hydroxy-piperidin-1-yl}-ethanone] is 4-fold higher in IC50: 32.7 nM for the first, 130 nM for the second.

Compared with `C[C@H]1CC[C@H](c2ccccc2)S(=O)(=O)N1Cc1ccc(OCC2(C)CCOCC2)cc1F` [Example 2, (3S,6R)-2-[2-Fluoro-4-(4-methyl-tetrahydro-pyran-4-ylmethoxy)-benzyl]-3-methyl-6-phenyl-[1,2]thiazinane 1,1-dioxide], `CCOC(=O)C[C@H](O)C1(c2ccc(CN3[C@@H](C)CC[C@H](c4ccccc4)S3(=O)=O)c(F)c2)CCOCC1` [Compound 115, ethyl (3S)-3-[4-[3-fluoro-4-[[(3S,6R)-3-methyl-1,1-dioxo-6-phenyl-thiazinan-2-yl]methyl]phenyl]tetrahydropyran-4-yl]-3-hydroxy-propanoate] is 1.7-fold lower in IC50: 67 nM for the first, 39.5 nM for the second. The second is the more potent here.

For `CC(=O)N1CCC(F)(c2ccc(CN3[C@@H](C)CC[C@H](c4ccccc4)S3(=O)=O)cc2)CC1` [Example 8, 1-{4-Fluoro-4-[4-((3S,6R)-3-methyl-1,1-dioxo-6-phenyl-[1,2]thiazinan-2-ylmethyl)-phenyl]-piperidin-1-yl}-ethanone], the IC50 was 200 nM.

— patent US10131644B2, “Aryl sultam derivatives as RORc modulators” (Genentech, Inc., priority 2014, dated 2018)
